Test results taken from PMC10525797, “Streptomyces rugosispiralis sp. nov., a Novel Actinobacterium Isolated from Peat Swamp Forest Soil That Produces Ansamycin Derivatives and Nocardamines” (Antibiotics, 2023).
Converted amounts (≈) assume the structure as drawn.

Tests used:
Bacillus cereus = assay: Antibacterial resazurin microplate assay (REMA), anti-B. cereus; assay type: cell-based; conditions: inactive = at the final concentration of 50 μg/mL
[1] = tested on: Mycobacterium tuberculosis strain H37Ra; assay: microbe, parasite or virus in culture; assay type: cell-based; conditions: for MIC: Mycobacterium tuberculosis, H37RA, read-out: Anti-M. tuberculosis MIC
[2] = tested on: Plasmodium falciparum (K-1, multi-drug resistant strain); assay: microbe, parasite or virus in culture; assay type: cell-based; conditions: for Anti-P. falciparum IC50: K-1 multi-drug resistant strain, inactive = at the final concentration of 50 μg/mL; for IC50: Plasmodium falciparum, read-out: Anti-P. falciparum IC50
Syphacia oblevata = tested on: Syphacia oblevata; parameters: method as in PMID 5459626; conditions: cited from earlier work
Plasmodium berghei = tested on: Plasmodium berghei; parameters: method as in PMID 5459626; conditions: cited from earlier work
[3] = tested on: HPV-18-positive HeLa cells; parameters: method as in PMID 28862674; conditions: cervical cancer cell line; cited from earlier work
Setosphaeria turcica = tested on: Setosphaeria turcica; parameters: method as in PMID 28862674; conditions: plant pathogen; cited from earlier work
in vitro [4] = conditions: African green monkey
[5] = tested on: KB (oral human epidermoid carcinoma, ATCC CCL-17); conditions: KB cells; inactive = at the final concentration of 50 μg/mL
[6] = tested on: MCF-7 (human breast cancer, ATCC HTC-22); conditions: MCF-7 cells; inactive = at the final concentration of 50 μg/mL
in vitro [7] = conditions: human
[8] = tested on: human histiocytic lymphoma U-937 cell line; parameters: method as in PMID 11213294; conditions: cited from earlier work
oncostatin M signaling = conditions: cell-based; cited from earlier work
Hsp90 ATPase = target: Hsp90 ATPase; parameters: method as in PMID 23124337; conditions: isolated from Streptomyces hygroscopicus JCM4427; read-out: Hsp90 ATPase inhibition IC50; cited from earlier work
[9] = tested on: tested microorganisms used in this study; assay: Antimicrobial activity test, tested microorganisms of this study; assay type: cell-based; conditions: at a concentration of 50 μg/mL
[10] = tested on: NCI-H187 (human small-cell lung cancer, ATCC CRL-5804); conditions: NCI-H187 cells; inactive = at the final concentration of 50 μg/mL
[11] = parameters: method as in PMID 15844966; conditions: final concentration of up to 200 μg/mL; cited from earlier work
E. faecium = tested on: E. faecium; parameters: method as in PMID 21376551; conditions: cited from earlier work
B. subtilis = tested on: B. subtilis; parameters: method as in PMID 21376551; conditions: cited from earlier work
V. alginolyticus = tested on: V. alginolyticus; parameters: method as in PMID 21376551; conditions: cited from earlier work
C. albicans = tested on: C. albicans; parameters: method as in PMID 21376551; conditions: cited from earlier work
T-47D = tested on: T-47D; parameters: method as in PMID 21376551; conditions: cited from earlier work
SK-Mel-5 = tested on: SK-Mel-5; parameters: method as in PMID 21376551; conditions: cited from earlier work
SK-Mel-28 = tested on: SK-Mel-28; parameters: method as in PMID 21376551; conditions: cited from earlier work
PRMI-7951 = tested on: PRMI-7951; parameters: method as in PMID 21376551; conditions: cited from earlier work
[12] = tested on: Vero cells (African green monkey kidney fibroblasts, ATCC CCL-81); conditions: inactive = at the final concentration of 50 μg/mL
in vitro [13] = conditions: human; remark: listed apart in the source

In the case of `COC1=C2C[C@@H](C)C[C@H](OC)[C@H](O)[C@@H](C)/C=C(\C)[C@H](OC(N)=O)[C@@H](OC)/C=C\C=C(/C)C(=O)NC(=CC1=O)C2=O` [(1), geldanamycin], the “Anti-B. cereus MIC” value (Bacillus cereus) is reported as “inactive”, the “Anti-M. tuberculosis MIC” value [1] is reported as “inactive” and the “Anti-P. falciparum IC50” value [2] is reported as “inactive”. The “in vivo anti-parasitic activity against Syphacia oblevata” value (Syphacia oblevata) was “in vivo anti-parasitic activity”, the “in vivo anti-parasitic activity against Plasmodium berghei” value (Plasmodium berghei) was “not against Plasmodium berghei” and the “growth of HPV-18-positive HeLa cells” value [3] was “inhibited the growth”. For the same molecule, the “antifungal activity against Setosphaeria turcica” value (Setosphaeria turcica) was “antifungal activity” and the IC50 (in vitro [4]) was 0.094 µg/mL (≈ 0.168 µM).

For `CO[C@H]1/C=C\C=C(/C)C(=O)NC2=CC(=O)C(O)=C(C[C@@H](C)C[C@H](OC)[C@H](O)[C@@H](C)/C=C(\C)[C@@H]1OC(N)=O)C2=O` [(2), 17-O-demethylgeldanamycin], the “Anti-B. cereus MIC” value (Bacillus cereus) was “inactive”, the “Anti-M. tuberculosis MIC” value [1] was “inactive” and the “Anti-P. falciparum IC50” value [2] was “inactive”. For the same molecule, the “Cytotoxicity IC50 KB” value [5] was “inactive”, the “Cytotoxicity IC50 MCF-7” value [6] was “inactive” and the IC50 (in vitro [4]) was 6.43 µg/mL (≈ 11.8 µM). For the same molecule, the IC50 (in vitro [7]) was 4.25 µg/mL (≈ 7.78 µM).

In the case of `COc1c(O)cc2cc1C[C@@H](C)C[C@H](OC)[C@H](O)[C@@H](C)/C=C(\C)[C@H](OC(N)=O)[C@@H](OC)CC/C=C(\C)C(=O)N2` [(3), reblastatin], the “Anti-B. cereus MIC” value (Bacillus cereus) is reported as “inactive”, the “Anti-M. tuberculosis MIC” value [1] is reported as “inactive” and the “Anti-P. falciparum IC50” value [2] is reported as “inactive”. For the same molecule, the “inhibition of proliferation of U-937 IC50” value [8] was 0.43 µg/mL, the IC50 (oncostatin M signaling) was 160 nM and the IC50 (Hsp90 ATPase) was 320 nM. For the same molecule, the IC50 (in vitro [4]) was 7.75 µg/mL (≈ 14.1 µM).

With `CO[C@H]1C[C@H](C)Cc2cc(O)cc(c2)NC(=O)/C(C)=C/CC[C@H](OC)[C@@H](OC(N)=O)/C(C)=C/[C@H](C)[C@H]1O` [(4), 17-demethoxyreblastatin] the “Anti-B. cereus MIC” value (Bacillus cereus) was “inactive”, the “Anti-M. tuberculosis MIC” value [1] was “inactive” and the “Anti-P. falciparum IC50” value [2] was “inactive”. The “Cytotoxicity IC50 KB” value [5] was “inactive”, the “Cytotoxicity IC50 MCF-7” value [6] was “inactive” and the IC50 (Hsp90 ATPase) was 1820 nM. It also gave an IC50 (in vitro [4]) of 13.5 µg/mL (≈ 26 µM) and an IC50 (in vitro [7]) of 1.33 µg/mL (≈ 2.56 µM).

In the case of `O=C1CCC(=O)N(O)CCCCCNC(=O)CCC(=O)N(O)CCCCCNC(=O)CCC(=O)N(O)CCCCCN1` [(5), nocardamine], the “Anti-B. cereus MIC” value (Bacillus cereus) is reported as “inactive”, the “Anti-M. tuberculosis MIC” value [1] is reported as “inactive” and the “Anti-P. falciparum IC50” value [2] is reported as “inactive”. For the same molecule, the “antimicrobial activity against tested microorganisms” value [9] was “inactive”, the “Cytotoxicity IC50 KB” value [5] was “inactive” and the “Cytotoxicity IC50 NCI-H187” value [10] was “inactive”. The “Cytotoxicity IC50 MCF-7” value [6] was “inactive”, the antimicrobial activity [11] was “no antimicrobial activity” and the “antimicrobial activity against E. faecium” value (E. faecium) was “weak antimicrobial activity”. For the same molecule, the “antimicrobial activity against B. subtilis” value (B. subtilis) was “weak antimicrobial activity”, the “antimicrobial activity against V. alginolyticus” value (V. alginolyticus) was “no activity” and the “antimicrobial activity against C. albicans” value (C. albicans) was “no activity”. For the same molecule, the “cell proliferation of T-47D” value (T-47D) was “did not inhibit cell proliferation”, the “colony formation of T-47D” value (T-47D) was “did inhibit their colony formation” and the “cell proliferation of SK-Mel-5” value (SK-Mel-5) was “did not inhibit cell proliferation”. For the same molecule, the “colony formation of SK-Mel-5” value (SK-Mel-5) was “did inhibit their colony formation”, the “cell proliferation of SK-Mel-28” value (SK-Mel-28) was “did not inhibit cell proliferation” and the “colony formation of SK-Mel-28” value (SK-Mel-28) was “did inhibit their colony formation”. For the same molecule, the “cell proliferation of PRMI-7951” value (PRMI-7951) was “did not inhibit cell proliferation”, the “colony formation of PRMI-7951” value (PRMI-7951) was “did inhibit their colony formation” and the IC50 (in vitro [4]) was 16.6 µg/mL (≈ 27.6 µM).

With `O=C1CCC(=O)NCCCCCN(O)C(=O)CCC(=O)NCCCCCN(O)C(=O)CCC(=O)NCCCCCN1` [(6), dehydroxynocardamine] the “Anti-B. cereus MIC” value (Bacillus cereus) was “inactive”, the “Anti-M. tuberculosis MIC” value [1] was “inactive” and the “Anti-P. falciparum IC50” value [2] was “inactive”. For the same molecule, the “antimicrobial activity against tested microorganisms” value [9] was “inactive”, the “Cytotoxicity IC50 Vero” value [12] was “inactive” and the “Cytotoxicity IC50 KB” value [5] was “inactive”. The “Cytotoxicity IC50 MCF-7” value [6] was “inactive”, the antimicrobial activity [11] was “no antimicrobial activity” and the IC50 (in vitro [7]) was 14 µg/mL (≈ 23.9 µM).

With `C[C@H]1[C@@H](O)O[C@@H]2O[C@@]3(C)CC[C@H]4[C@H](C)CC[C@@H]1[C@@]24OO3` [Dihydroartemisinine, reference compound] the IC50 [2] was 0.000702 µg/mL (≈ 0.00247 µM).

`Cc1c2ccncc2c(C)c2c1[nH]c1ccccc12` [Ellipticine, reference compound] gave an IC50 (in vitro [4]) of 1.58 µg/mL (≈ 6.41 µM).

Molecule `CC[C@@H](CO)NCCN[C@@H](CC)CO` [Ethambutol, reference compound] has an MIC [1] of 0.938 µg/mL (≈ 4.59 µM).

`NNC(=O)c1ccncc1` [Isoniazid, reference compound] showed an MIC [1] of 0.047 µg/mL (≈ 0.343 µM).

For `OC(c1cc(C(F)(F)F)nc2c(C(F)(F)F)cccc12)C1CCCCN1` (stereo not drawn) [Mefloquine, reference compound], the IC50 [2] was 0.024 µg/mL (≈ 0.0634 µM).

`CC1COc2c(N3CCN(C)CC3)c(F)cc3c(=O)c(C(=O)O)cn1c23` (stereo not drawn) [Ofloxacin, reference compound] gave an MIC [1] of 0.391 µg/mL (≈ 1.08 µM).

In the case of `CO[C@H]1/C=C/O[C@@]2(C)Oc3c(C)c(O)c4c(O)c(c(/C=N/N5CCN(C)CC5)c(O)c4c3C2=O)NC(=O)/C(C)=C\C=C\[C@H](C)[C@H](O)[C@@H](C)[C@@H](O)[C@@H](C)[C@H](OC(C)=O)[C@@H]1C` [Rifampicin, reference compound], the MIC [1] is reported as 0.013 µg/mL (≈ 0.0158 µM).

`CC/C(=C(\c1ccccc1)c1ccc(OCCN(C)C)cc1)c1ccccc1` [Tamoxifen, reference compound] showed an IC50 (in vitro [13]) of 6.96 µg/mL (≈ 18.7 µM).

Work on `CN[C@H](CC(C)C)C(=O)N[C@H]1C(=O)N[C@@H](CC(N)=O)C(=O)N[C@H]2C(=O)N[C@H]3C(=O)N[C@H](C(=O)N[C@H](C(=O)O)c4cc(O)cc(O)c4-c4cc3ccc4O)[C@H](O)c3ccc(c(Cl)c3)Oc3cc2cc(c3O[C@@H]2O[C@H](CO)[C@@H](O)[C@H](O)[C@H]2O[C@H]2C[C@](C)(N)[C@H](O)[C@H](C)O2)Oc2ccc(cc2Cl)[C@H]1O` [Vancomycin, reference compound] yielded an MIC (Bacillus cereus; Bacillus cereus) of 2 µg/mL (≈ 1.38 µM).
